Source: US20160030409A1, “METHOD FOR RELIEVING CHRONIC PAIN” (priority 2014, published 2016)

Test system: chronic non-malignant pain due to fibromyalgia and osteoarthritis
Assay: Trial experiment: Naropin injected into tender points of a patient with chronic non-malignant pain
Type: in vivo
Procedure: The patient was treated with the anesthetic Naropin® (generically known as ropivacaine), by injecting 0.5 cc of the anesthetic, by needle, into most tender points above and below the knees. Naropin was administered at a concentration of 5 mg/ml.
Subsequently, after sufficient time had elapsed for the previously injected Naropin to leave the patient's body, 0.5 cc of Naropin was once again administered, at a concentration of 5 mg/ml, using the Medical International Technology, Inc. (MIT) Med-Jet® H™ needleless, pressure-based injector. The injector was set at a pressure of 150 psig. For knee pain, most tender points, approximately five to eight, above and below the knees were injected. For hip pain, most tender points, approximately five, above the trochanteric bursa were injected. For back pain, most tender points, approximately ten on each side of the back, around the sacroiliac joints were injected. A single injection was administered for each tender point selected for injection. The administration of the local anesthetic by needleless injection left painful welts at each injection site, which took approximately two to three weeks to disappear.

CCCN1CCCC[C@H]1C(=O)Nc1c(C)cccc1C [Naropin, ropivacaine]
tenderness of tender points after the welts had disappeared (0.5 cc at 5 mg/ml by Med-Jet H needleless pressure-based injector at 150 psig): no longer tender | pain after the welts had disappeared (0.5 cc at 5 mg/ml by Med-Jet H needleless pressure-based injector at 150 psig, tender points of knees, hip, back): pain was diminished | pain relief (0.5 cc at 5 mg/ml injected by needle into most tender points above and below the knees, middle-aged patient): No pain relief | time for welts to disappear (needleless injection, 150 psig): two to three | injection site reaction (needleless injection, 150 psig, each injection site): painful welts
